Assay results as given in patent publication US20220009894A1, “1,2,3,4-TETRAHYDROQUINOXALINE DERIVATIVE, PREPARATION METHOD THEREFOR AND APPLICATION THEREOF” (Abbisko Therapeutics Co., Ltd., priority 2019, published 2022).

Legend:
RORγt = biological target: T1, RORγt (Homo sapiens, UniProt P51449); assay: RORγt cellular reporter gene detection assay; assay type: cell-based; details: 24 hrs; for EC50: HEK 293 cells co-transfected with pFN26A-RORγt-LBD and pG14.35, in presence of antagonist Ursolic acid, top concentration 50 μM; for Cellular Reporter Assay Amax: upper activation limit, HEK 293 cells, in presence of antagonist Ursolic acid;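 for Cellular Reporter Assay Amax: Ursolic Acid added as 5 µL of 20 µM medium per well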
T1 construct: The plasmid of pFN26A-RORγt-LBD and pG14.35 (Promega, Cat. No. E1370) were co-transfected into HEK 293 cells; expressed in transfected cells; host or cells: HEK 293 cells (Cat. No. GNHu18)
T1 sequence (P51449 269-508 limits assumed): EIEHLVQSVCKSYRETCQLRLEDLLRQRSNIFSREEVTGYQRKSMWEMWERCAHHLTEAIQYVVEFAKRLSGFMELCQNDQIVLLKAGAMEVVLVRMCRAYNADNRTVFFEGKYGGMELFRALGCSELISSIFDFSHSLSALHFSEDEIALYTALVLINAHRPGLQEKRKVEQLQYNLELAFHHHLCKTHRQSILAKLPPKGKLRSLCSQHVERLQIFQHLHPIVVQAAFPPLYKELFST
How it was run: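 HEK293 cells co-transfected with RORγt-LBD and luciferase reporter plasmids, treated with Ursolic acid antagonist plus compound in 4-fold dilutions from 50 μM for 24 h at 37° C. Firefly and Renilla luminescence read; EC50 and Amax from four-parameter fit.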

RORγt-LBD = biological target: T2, RORγt-LBD (Homo sapiens, UniProt P51449); assay: Time-resolved fluorescence resonance energy-transfer assay (TR-FRET), co-activator peptide recruitment; assay type: biochemical; set-up: TR-FRET Biochemical Amax: unit not given here; details: for EC50: His-RORγt-LBD 30 nM, SRC peptide 500 nM, agonistic activity, averages of one or more measurements, read-out: TR-FRET Biochemical EC50/; for TR-FRET Biochemical Amax: upper activation limit, His-RORγt-LBD, SRC peptide
T2 sequence (P51449 269-508 limits assumed): T1 sequence (P51449 269-508 limits assumed)
How it was run: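 Eu-anti-His-labelled His-RORγt-LBD (30 nM final) recruits biotin-SRC co-activator peptide (500 nM final), detected via APC-streptavidin (5 nM) and Eu-anti-His (0.25 nM). Buffer was Tris/KCl/EDTA at pH 7.0 with 0.01% Triton X-100 and 1 mM DTT. Compounds were tested at 7 points in 5-fold dilutions. Plates were incubated overnight at 4 °C then 1 h at RT, and agonism was read as the 665/615 nm ratio.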

| SMILES | EC50 (RORγt) [nM] | Cellular Reporter Assay Amax (RORγt) | EC50 (RORγt-LBD) [nM] | TR-FRET Biochemical Amax (RORγt-LBD) |
| --- | --- | --- | --- | --- |
| CC1(C)C=C(c2ccc3c(c2)N(S(=O)(=O)c2cccc(C(F)(F)F)c2)C[C@@H]2CN(C4COC4)CCN32)CC(C)(C)O1 [Example 34, (S)-3-(oxetan-3-yl)-8-(2,2,6,6-tetramethyl-3,6-dihydro-2H-pyran-4-yl)-6-((3-(trifluoro-methyl)phenyl)sulfonyl)-2,3,4,4a,5,6-hexahydro-1H-pyrazino[1,2-a]quinoxaline] | 156 | 1.7 | 3.91 | 1.11 |
| O=S(=O)(c1cccc(C(F)(F)F)c1)N1C[C@@H]2CN(C[C@@H](O)CO)CCN2c2ccc(/C=C/c3c(Cl)cccc3C(F)(F)F)cc21 [Example 35, (R)-3-((S)-8-((E)-2-chloro-6-(trifluoromethyl)styryl)-6-((3-(trifluoromethyl)phenyl)sulfonyl)-1,2,4,4a,5,6-hexahydro-3H-pyrazino[1,2-a]quinoxalin-3-yl)propane-1,2-diol] | 467 | 4.2 | 24 | 1.15 |
| O=S(=O)(c1cccc(C(F)(F)F)c1)N1C[C@@H]2CN(C[C@H](O)CO)CCN2c2ccc(/C=C/c3c(Cl)cccc3C(F)(F)F)cc21 [Example 36, (S)-3-((S)-8-((E)-2-chloro-6-(trifluoromethyl)styryl)-6-((3-(trifluaromethyl)phenyl)sulfonyl)-1,2,4,4a,5,6-hexahydro-3H-pyrazino[1,2-a]quinoxalin-3-yl)-propane-1,2-diol] | 501 | 4.1 | 24.9 | 1.23 |
| C/C(=C\c1ccc2c(c1)N(S(=O)(=O)c1cccc(C(F)(F)F)c1)C[C@@H]1CN(C[C@H](O)CO)CCN21)c1c(F)cccc1Cl [Example 38, (S)-3-((S)-8-((E)-2-(2-chloro-6-fluorophenyl)prop-1-en-1-yl)-6-((3-(trifluoromethyl)phe-nyl)sulfonyl)-1,2,4,4a,5,6-hexa-hydro-3H-pyrazino[1,2-a]qui-noxalin-3-yl)propane-1,2-diol] | 290 | 3.7 | 40.7 | 1.23 |
| O=S(=O)(c1cccc(C(F)(F)F)c1)N1C[C@@H]2CN(C[C@@H](O)CO)CCN2c2ccc(-c3cc(F)cc(OC(F)F)c3)cc21 [Example 39, (R)-3-((S)-8-(3-(difluorome-thoxy)-5-fluorophenyl)-6-((3-(trifluoromethyl)phenyl)sulfonyl)-1,2,4,4a,5,6-hexahydro-3H-pyrazino[1,2-a]quinoxalin-3-yl) propane-1,2-diol] | 1240 | 2.2 | 33.6 | 0.58 |

The remaining lines, values ahead:

| EC50 (RORγt) [nM] | Cellular Reporter Assay Amax (RORγt) | EC50 (RORγt-LBD) [nM] | TR-FRET Biochemical Amax (RORγt-LBD) | SMILES |
| --- | --- | --- | --- | --- |
| 2040 | 5.2 | 45.7 | 0.93 | C/C(=C\c1ccc2c(c1)N(S(=O)(=O)c1cccc(C(F)(F)F)c1)C[C@@H]1CN(C3COC3)CCN21)c1c(F)cccc1Cl [Example 33, (S,E)-8-(2-(2-chloro-6-fluoro-phenyl)prop-1-en-1-yl)-3-(oxetan-3-yl)-6-((3-(trifluoro-methyl)pheny4)sulfonyl)-2,3,4,4a,5,6-hexahydro-1H-pyrazino[1,2-a]quinoxaline] |
| 366 | 3.7 | 37.5 | 1.21 | C/C(=C\c1ccc2c(c1)N(S(=O)(=O)c1cccc(C(F)(F)F)c1)C[C@@H]1CN(C[C@@H](O)CO)CCN21)c1c(F)cccc1Cl [Example 37, (R)-3-((S)-8-((E)-2-(2-chloro-6-fluorophenyl)prop-1-en-1-yl)-6-((3-(trifluoromethyl)phe-nyl)sulfonyl)-1,2,4,4a,5,6-hexa-hydro-3H-pyrazino[1,2-a]qui-noxalin-3-yl)propane-1,2-diol] |
